{"source": "paper PMC6195508", "about": "“Studies on the metabolism and degradation of vancomycin in simulated in vitro and aquatic environment by UHPLC-Triple-TOF-MS/MS” (Scientific Reports, 2018)", "key": {"[1]": {"experiment": "Degradation of vancomycin in phosphate buffer saline (PBS system)", "format": "physicochemical", "conditions": "chemical stability in phosphate buffer saline; vancomycin 60 mg/L; 37 °C, constant temperature oscillator, sampled every 24 h for 10 days; one sample per time point; UHPLC-Triple-TOF-MS/MS, ESI+", "procedure": "(§1) UHPLC-Triple-TOF-MS/MS analysis was performed on a Shimadzu LC-30A UHPLC system (Kyoto, Japan) consisting of an autosampler (SIL-30AC), a binary pump (LC-30AD) and a column oven (CTO-30A) connected to an AB SCIEX triple TOF 5600 MS/MS system (Redwood, USA) equipped with Duo-Spray ion source. The compound separation was conducted with a Poroshell 120 EC-C18 (2.1 × 150 mm, 2.7 μm, Agilent InfinityLab, USA) chromatographic column maintained at 40 °C. The mobile phases A (0.1% aqueous formic acid) and B (acetonitrile) were used to optimized the gradient elution program, which was operated at follows: 0–1 min, 5% B; 1–9 min, 5–10% B; 9–14 min, 10–45% B; 14–20 min, 45–90% B; 20–25 min, 90% B for washing the column; 25–25.1 min, 90–5% B; 25.1–30 min, 5% B for equilibrating the column. The constant flow rate was 0.4 mL/min, and the injection volume was 5 µL.\n(§2) The full-scan MS spectra and MS/MS spectra data were obtained in positive electrospray ionization (ESI) mode by Analyst TF 1.6 software (AB Sciex, USA). Full scan mode was applied, the parent ions scan ranged from m/z 100 to 2000 Da with a 200 ms accumulation time and the product ions scan range from 100 to 1500 Da with a 70 ms accumulation time. Simultaneously, the calibration delivery system calibrated mass numbers by every five samples to acquire exact mass of ions. The running time of data independent acquisition (DIA) was 20 min. […]"}, "[2]": {"experiment": "Degradation of vancomycin in pure water (pure water system)", "format": "physicochemical", "conditions": "chemical stability in pure (Milli-Q) water; vancomycin 60 mg/L; 37 °C, constant temperature oscillator, sampled every 24 h for 10 days; one sample per time point; UHPLC-Triple-TOF-MS/MS, ESI+", "procedure": "as §1, §2"}, "[3]": {"experiment": "Incubation of vancomycin in activated (experimental) and inactivated (control) rat liver microsomes", "format": "in vitro ADME", "conditions": "vancomycin 60 mg/L, 37 °C, UHPLC-Triple-TOF-MS/MS", "procedure": "as §1, §2"}}}
{"smiles": "CN[C@H](CC(C)C)C(=O)N[C@H]1C(=O)N[C@@H](CC(N)=O)C(=O)N[C@H]2C(=O)N[C@H]3C(=O)N[C@H](C(=O)N[C@H](C(=O)O)c4cc(O)cc(O)c4-c4cc3ccc4O)[C@H](O)c3ccc(c(Cl)c3)Oc3cc2cc(c3O[C@@H]2O[C@H](CO)[C@@H](O)[C@H](O)[C@H]2O[C@H]2C[C@](C)(N)[C@H](O)[C@H](C)O2)Oc2ccc(cc2Cl)[C@H]1O", "note": "[vancomycin, Vancomycin]", "values": [{"measurement": "time to 50% loss of vancomycin in PBS", "setting": "[1]", "value": "approximately 9 days"}, {"measurement": "time to 50% loss of vancomycin in water", "setting": "[2]", "value": "over 10 days"}, {"measurement": "half-life at 60 mg/L", "setting": "[3]; male, Sprague-Dawley rat liver microsomes 1 mg/mL protein (activated with 1 mmol/L NADPH, or inactivated), PBS, MgCl2 3.3 mmol/L, constant temperature oscillator, pre-heated 5 min, sampled every 24 h for 10 days, one sample per time point, ESI+, read-out: time to 50% loss of vancomycin in rat liver microsomes (converted)", "value": "~144", "unit": "h"}, {"measurement": "metabolism by liver microsomal cytochrome P450 enzymes (activated versus inactivated microsomes)", "setting": "[3]; similar degradation rate in activated (NADPH 1 mmol/L) and inactivated rat liver microsomes, 1 mg/mL protein", "value": "not metabolized in the liver"}]}
